Key:
[1] = test system: E. coli DH5αKT clones that spontaneously grew within the growth inhibition zone of a pALB571-pOp3-4/XALB2-3 exconjugant; assay: Cross-resistance test: albicidin production assay with X. albilineans Xa23R1; assay type: cell-based, Escherichia coli; settings: albicidin produced by X. albilineans Xa23R1; two clones as tester strains
Procedure: Assay of albicidin production. Albicidin production was tested by a microbiological assay as described previously (Rott et al., 1996). Rifampicin and kanamycin exconjugants were spotted with sterile toothpicks (2-mm-diameter spots) onto plates of SPA medium (2% sucrose, 0.5% peptone, 1.5% agar) and incubated at 28° C. for 2-5 days. The plates were then overlaid with a mixture of E. coli DH5α (10^7 cells in 2 ml of distilled water) plus 2 ml of molten 1.5% (wt/vol) Noble agar (Difco) at ca. 65° C. and examined for inhibition zones after 24 h at 37 C.
Two E. coli DH5αKT clones, that spontaneously grew within the growth inhibition zone of a X. axonopodis pv. vesicatoria pALB571-pOp3-4/XALB2-3 exconjugant on SPA+tetracycline medium, were isolated and tested for resistance to albicidin. […] Comparison of chemical characteristics of the two molecules will, however, be necessary to confirm that the two molecules are identical.

[2] = test system: chloroplast DNA replication; settings: Birch and Patil, 1983-1987; cited from earlier work
[3] = test system: prokaryotic DNA replication; settings: Birch and Patil, 1985a; cited from earlier work
[4] = test system: gram-positive and gram-negative bacteria; settings: range of gram-positive and gram-negative bacteria; Birch and Patil, 1985a; cited from earlier work
[5] = test system: proteases; settings: Birch and Patil, 1985a; cited from earlier work

Question: Which results are given for albicidin?
Answer: growth inhibition of clones resistant to the albicidin-like product [1]: No growth inhibition; effect on chloroplast DNA replication [2]: inhibits chloroplast DNA replication; effect on prokaryotic DNA replication [3]: inhibits prokaryotic DNA replication; bactericidal activity [4]: bactericidal; sensitivity to proteases [5]: insensitive to proteases

Reference: patent publication US7510852B2, “Biosynthetic genes and host cells for the synthesis of polyketide antibiotics and method of use” (priority 2002, dated 2009)
